Laboratory results reported in patent US9969679B2, “Anti-proliferative compounds and uses thereof” (Dana-Farber Cancer Institute, Inc., priority 2012, dated 2018).

What was measured:
[1] = tested on: MCF7 human breast cancer cell lines; test: MCF7 cell growth, MTT dye absorbance; format: cell-based; conditions: for MCF7 cell growth: 72 hr
Experimental: (§1) MCF7 human breast cancer cell lines were obtained from the American Type Culture Collection (Manassas, Va.). The cells were cultured in DMEM (Mediatech Inc., Manassas, Va.) or RPMI1640 (Mediatech Inc., Manassas, Va.) supplemented with FBS (10%), penicillin, streptomycin, and glutamine (Invitrogen, Auckland, New Zealand). […] The MCF7 cells were harvested using 0.05% trypsin-EDTA (Invitrogen) and distributed into 96-well plates (10,000-20,000 cells/well) 24 hr prior to the treatment. All experiments were performed three times in quadruplicate.

[2] = tested on: ER; test: Immunoblot of whole cell lysates for ER; format: cell-based, human; conditions: for ER expression, dose-dependent: 24 hr
Experimental: (§2) MCF7 cells were obtained and cultured (in the presence of compound III-B for 48 hr) in a similar manner as in Example 6. The cultured MCF7 cells were harvested, washed, and lysed using a lysis buffer (50 mM Tris-HCl (pH 7.4), 150 mM NaCl, 1% NP-40, 5 mM EDTA, 5 mM NaF, 1 mM Na3VO4, 1 mM PMSF, 5 μg/ml leupeptine, and 5 μg/ml aprotinin). […] The antibodies used were polyclonal anti-acetylated lysine (Ac—K; Cell Signaling Technology, Danvers, Mass.) and antibodies directed against EGFR, HER2, ER, and acetylated-α-tubulin (Ac-α-tubulin). […] In contrast, the expression of Ac—K in MCF7 cells was not affected by compound III-B (FIG. 12B).
(§3) MCF7 and T47D cells were obtained and cultured (in the presence of compound III-D (0, 0.5, 1, or 2 μM), for 24 hr), using methods similar to the ones described in Example 6. The whole cell lysates were immunoblotted with antibodies against EGFR, HER2, ER, and α-tubulin using methods similar to the ones described in Example 12. […] In contrast, the expression of α-tubulin in MCF7 or T47D cells was not affected by compound III-D (FIG. 13B).
(§4) MCF7 cells were obtained and cultured (in the presence of 2 μM of compound III-D, for 0, 12, 24, or 48 hr) using methods similar to the ones described in Example 6. The whole cell lysates were immunoblotted with antibodies against EGFR, HER2, ER, and α-tubulin using methods similar to the ones described in Example 12. […] In contrast, the expression of α-tubulin in MCF7 cells was not affected by compound III-D.

[3] = tested on: HER2; test: Immunoblot of whole cell lysates for HER2; format: cell-based, human; conditions: for HER2 expression, dose-dependent: 24 hr
Experimental: as §2, §3, §4

[4] = tested on: acetylated lysine (Ac—K); test: Immunoblot for acetylated lysine (histone acetylation); format: cell-based, human; conditions: MCF7 cells, 48 hr
Experimental: as §2

[5] = tested on: EGFR; test: Immunoblot of whole cell lysates for EGFR; format: cell-based, human; conditions: for EGFR expression, dose-dependent: 24 hr
Experimental: as §2, §3, §4

[6] = tested on: T47D human breast cancer cells; test: T47D cell growth, MTT dye absorbance; format: cell-based; conditions: for T47D cell growth: 72 hr
Experimental: as §1
T47D human breast cancer cells were obtained, cultured (in the presence of compounds III-A, III-B, III-C, or III-E), and assayed in a similar manner as in Example 6.

[7] = tested on: LnCaP human prostate cancer cells; test: LnCaP cell growth, MTT dye absorbance; format: cell-based; conditions: 72 hr
Experimental: [The procedure below names another cell line; the source lists this cell line under the same test.] as §1

[8] = tested on: pY705 STAT3; test: Intracellular flow cytometry of STAT3 phosphorylation in MDSCs; format: cell-based, human; conditions: 1 μM overnight, MM-PBMC, PHA 2 ng/ml 10 min
Experimental: (§5) STAT-mediated signaling plays an important role in MDSC activation and function.
(§6) MM-PBMCs were cultured overnight with (1 μM) or without compound III-D. Cells were induced with phytohemagglutinin (PHA, 2 ng/ml) for 10 min. Intracellular expression of pY701 STAT1, pY705 STAT3, pY694 STAT5, STAT1, STAT3, and STAT5 in MDSCs (CD11b^+CD14^−HLA-DR^−/lowCD33^+CD15^+), was determined by flow cytometry analysis.

[9] = tested on: T cells cocultured with MDSCs from peripheral blood of MM patients; test: MDSC-mediated T cell suppression, 3H-Thymidin incorporation assay; format: cell-based, human; conditions: 1 μM, 5 days coculture, T:MDSCs 4:1, antiCD3/CD28 Abs and rhIL-2
Experimental: CD11b^+CD14^−HLA-DR^−/lowCD33^+ MDSCs and CD3T cells were isolated from peripheral blood of MM patients. The cells were stimulated with antiCD3/CD28 Abs and 2 ng/ml rhIL-2 and cocultured (ratio of T:MDSCs was 4:1) for 5 days in the absence or presence (1 μM) of compound III-D. The cell proliferation was measured by ^3H-Thymidin incorporation assay.

[10] = tested on: CD11b+CD14−HLA-DR−/lowCD33+CD15+ MDSCs in MM-PBMC; test: MDSC number and maturation in MM-PBMC, flow cytometry; format: cell-based, human; conditions: 1 μM, cultured overnight; for number of CD11b+CD14−HLA-DR−/lowCD33+CD15+ MDSCs in MM-PBMC: vs untreated MM-PBMC
Experimental: In order to determine whether myeloid derived suppressor cells (MDSCs) are present in subjects with multiple myeloma (MM), fresh or cultured peripheral blood mononuclear cells (PBMCs) and bone marrow mononuclear cells (BMMCs) from human subjects with MM have been analyzed using standard cell-surface multicolor flow cytometry staining methods (see, e.g., Herzenberg et al., Clin. Chem. (2002) 48:1819-27; and Perez et al., Nat. Biotechnol. (2002) 20:155-62).
MM-PBMCs were cultured overnight with (1 μM) or without compound III-D. MDSCs (CD11b^+CD14^−HLA-DR^−/lowCD33^+CD15^+) were determined by flow cytometry analysis. Gates 110 and 130 indicate the MDSC population. Compound III-D induces maturation of MDSCs (CD11b^+CD14^−HLA-DR^−/lowCD33^+CD15^+) into CD14^+ and/or CD14^−[…] (FIG. 3G) in MM peripheral blood compared to untreated MM-PBMC (FIG. 3C). MM-PBMCs were cultured overnight with (1 μM) or without compound III-D. CD14 and/or HLA-DR expressing MDSCs (CD11b^+CD14^−HLA-DR^−/lowCD33^+CD15^+) were determined by flow cytometry analysis. Gates 100 and 120 indicate CD14^+ mature MDSC population. Gating strategy of MDSCs has been indicated as CD11b^+ cells (FIGS. 3A-3B and 3E-3F), CD11b^+CD14^−HLA-DR^−/lowCD14^− cells (FIGS. 3C and 3G) and MDSCs with a phenotype of CD11b^+/HLA-DR^−/lowCD14^−/CD33^+CD15^+ cells (FIGS. 3D and 3H).

[11] = tested on: MCF7 cells; test: Bortezomib and III-D combination cytotoxicity in MCF7 cells, MTT, isobologram analysis; format: cell-based, human; conditions: 48 hr; for Combination indicia (CI): MCF7 cells
Experimental: as §1
MCF7 cells were obtained, cultured (in the presence of bortezomib (0, 10, 20, or 40 nM) and III-D (0, 0.3, 1, or 3 μM), for 48 hr), and assayed using methods similar to the ones described in Example 6. The statistical significance of the differences observed between the control cultures and the cultures treated with bortezomib and compound III-D was determined using the Wilcoxon signed-ranks test. The minimal level of significance was p<0.05. The interaction between compound III-D and bortezomib was analyzed by isobologram analysis using the CalcuSyn software program (Biosoft, Ferguson, Mo.) to determine whether the combination was additive or synergistic. A combination index (CI)<1.0 indicates a synergistic cell growth inhibitory effect.

[12] = tested on: α-tubulin; test: Immunoblot of whole cell lysates for α-tubulin; format: cell-based, human
Experimental: as §2, §3, §4

[13] = tested on: pY694 STAT5; test: Intracellular flow cytometry of STAT5 phosphorylation in MDSCs; format: cell-based, human; conditions: 1 μM overnight, MM-PBMC, PHA 2 ng/ml 10 min
Experimental: as §5, §6

[14] = tested on: pY701 STAT1; test: Intracellular flow cytometry of STAT1 phosphorylation in MDSCs; format: cell-based, human; conditions: 1 μM overnight, MM-PBMC, PHA 2 ng/ml 10 min
Experimental: as §5, §6

[15] = MCF7 cells, 2 μM, 0, 12, 24, or 48 hr

In the case of `CC(=O)N/N=C/c1ccc(N(c2ccccc2)c2ccccc2)cc1` [Compound III-B], the MCF7 cell growth [1] is reported as “inhibit”, the ER expression ([2]; MCF7 cells, 48 hr) is reported as “down-regulates” and the HER2 expression ([3]; MCF7 cells, 48 hr) is reported as “down-regulates”. The “expression of Ac—K” value [4] was “not affected”, the EGFR expression ([5]; MCF7 cells, 48 hr) was “down-regulates” and the T47D cell growth [6] was “inhibit”. The LnCaP cell growth [7] was “inhibit”.

With `O=C(N/N=C/c1ccc(N(c2ccccc2)c2ccccc2)cc1)c1ccccc1` [Compound III-C] the MCF7 cell growth [1] was “inhibit”, the T47D cell growth [6] was “inhibit” and the LnCaP cell growth [7] was “inhibit”.

`CN1CCC(C(=O)N/N=C/c2ccc(N(c3ccccc3)c3ccccc3)cc2)CC1` [Compound III-D] was tested, and the MCF7 cell growth [1] was “inhibit”, the “potency in inhibiting MCF7 cells compared with tamoxifen” value ([1]; at least at 3-10 μM of compound and tamoxifen) was “more potent than tamoxifen” and the “ER expression, dose-dependent” value ([2]; MCF7 cells, 0, 0.5, 1, or 2 μM) was “down-regulates”. For the same compound, the “ER expression, time-dependent” value [2, 15] was “down-regulates”, the “ER expression, dose-dependent” value ([2]; T47D cells, 0, 0.5, 1, or 2 μM) was “down-regulates” and the “phosphorylation of STAT3 (pY705) in MDSCs” value [8] was “significantly reduced”. The “MDSC-mediated T cell suppression (T cell proliferation)” value [9] was “Reversed”, the “HER2 expression, dose-dependent” value ([3]; MCF7 cells, 0, 0.5, 1, or 2 μM) was “down-regulates” and the “HER2 expression, time-dependent” value [3, 15] was “down-regulates”. For the same compound, the “HER2 expression, dose-dependent” value ([3]; T47D cells, 0, 0.5, 1, or 2 μM) was “down-regulates”, the “maturation of MDSCs into CD14+ monocytes and/or CD14+HLA-DR+ antigen presenting cells” value ([10]; MM-PBMC) was “induced maturation” and the “number of CD11b+CD14−HLA-DR−/lowCD33+CD15+ MDSCs in MM-PBMC” value [10] was “significant decrease”. The “Combination indicia (CI)” value ([11]; III-D 0.3 μM + bortezomib 10 nM) was 1.58, the “Combination indicia (CI)” value ([11]; III-D 0.3 μM + bortezomib 20 nM) was 1.29 and the “Combination indicia (CI)” value ([11]; III-D 0.3 μM + bortezomib 40 nM) was 0.83. For the same compound, the “Combination indicia (CI)” value ([11]; III-D 1 μM + bortezomib 10 nM) was 0.66, the “Combination indicia (CI)” value ([11]; III-D 1 μM + bortezomib 20 nM) was 0.53 and the “Combination indicia (CI)” value ([11]; III-D 1 μM + bortezomib 40 nM) was 0.53. For the same compound, the “Combination indicia (CI)” value ([11]; III-D 3 μM + bortezomib 10 nM) was 1.22, the “Combination indicia (CI)” value ([11]; III-D 3 μM + bortezomib 20 nM) was 1.03 and the “Combination indicia (CI)” value ([11]; III-D 3 μM + bortezomib 40 nM) was 0.98. The “enhancement of bortezomib-induced MCF7 cytotoxicity (interaction)” value ([11]; combination with bortezomib, at least at certain concentrations, CI<1 = synergistic) was “synergistically”, the “expression of α-tubulin” value ([12]; MCF7 cells, 0, 0.5, 1, or 2 μM, 24 hr) was “not affected” and the “expression of α-tubulin” value [12, 15] was “not affected”. For the same compound, the “expression of α-tubulin” value ([12]; T47D cells, 0, 0.5, 1, or 2 μM, 24 hr) was “not affected”, the “phosphorylation of STAT5 (pY694) in MDSCs” value [13] was “significantly reduced” and the “EGFR expression, dose-dependent” value ([5]; MCF7 cells, 0, 0.5, 1, or 2 μM) was “down-regulates”. The “EGFR expression, time-dependent” value [5, 15] was “down-regulates”, the “EGFR expression, dose-dependent” value ([5]; T47D cells, 0, 0.5, 1, or 2 μM) was “down-regulates” and the “potency in inhibiting T47D cells compared with tamoxifen” value [6] was “more potent than tamoxifen”. For the same compound, the “phosphorylation of STAT1 (pY701) in MDSCs” value [14] was “significantly reduced”.

For `O/N=C/c1ccc(N(c2ccccc2)c2ccccc2)cc1` [Compound III-E], the MCF7 cell growth [1] was “inhibit”, the T47D cell growth [6] was “inhibit” and the LnCaP cell growth [7] was “inhibit”.

For `O=C1CN(/N=C/c2ccc(N(c3ccccc3)c3ccccc3)cc2)C(=O)N1` [Compound III-F], the MCF7 cell growth [1] was “inhibit”, the “phosphorylation of STAT3 (pY705) in MDSCs” value [8] was “decreases” and the “MDSC-mediated T cell suppression (T cell proliferation)” value [9] was “reverses”. The “number of CD11b+CD14−HLA-DR−/lowCD33+CD15+ MDSCs in MM-PBMC” value [10] was “decreased”, the “phosphorylation of STAT5 (pY694) in MDSCs” value [13] was “decreases” and the “phosphorylation of STAT1 (pY701) in MDSCs” value [14] was “decreases”.

`O=C(NN=Cc1ccccc1)c1ccccc1` [Compound IV-B] was tested, and the MCF7 cell growth [1] was “do not”.

`CC(=O)NN=Cc1ccccc1` [Compound IV-C] was tested, and the MCF7 cell growth [1] was “do not”.

With `CC(=O)NN=Cc1ccc(N(C)C)cc1` [Compound IV-D] the MCF7 cell growth [1] was “does not”.

With `O=Cc1ccc(N(c2ccccc2)c2ccccc2)cc1` [III-A] the MCF7 cell growth [1] was “inhibit”, the T47D cell growth [6] was “inhibit” and the LnCaP cell growth [7] was “inhibit”.

`CC(C)C[C@H](NC(=O)[C@H](Cc1ccccc1)NC(=O)c1cnccn1)B(O)O` [bortezomib, reference compound] was tested, and the “response of MCF7 cells to bortezomib as single agent” value ([11]; bortezomib 0, 10, 20, or 40 nM) was “resistant”.
